According to patent US11083717B2, “Compositions and methods for drug sensitization of parasites” (The Texas A&M University System, priority 2015, dated 2021):
≈ marks a conversion by molar mass, not a printed value. Where two headings read alike, the source gives them in different places.

Legend:
[1] = system: Eimeria; assay: Coccidiosis in broiler chicks, duodenal lesion scores; format: in vivo; conditions: 20 mg/bird daily by oral gavage, FIG. 7
Description: To determine the effects of NZ-366 and NZ-369 on coccidiosis in broiler chicks, experimental animals were divided into 4 treatment groups: Unmedicated (UNM), those receiving the experimental compounds (366 and 369); and those receiving Salinomycin (SAL).
Compounds NZ-366 and NZ-369 were administered at a dose of 20 mg/bird by oral gavage daily beginning from 11 days post-hatching. Salinomycin was administered in-feed beginning from 10 days post-hatching. Broilers were administered a 1000× dose of coccidiosis vaccine by oral gavage at 13 days post-hatching.
Lesion scores in the duodenum were lower in broiler chicks administered NZ-369 as compared to unmedicated broilers and those administered NZ-366. […] In FIG. 7, lesion scores expressed as the mean±SEM from 24 broilers per treatment.

[2] = HCLint in vitro intrinsic clearance, human (HLM); format: in vitro ADME
[3] = biological target: Human ether-a-go-go-related gene (hERG) (Homo sapiens, UniProt Q12809); assay: hERG test (potential cardiotoxicity); format: biochemical; conditions: read-out: hERG (Abbvie)
Chain of Human ether-a-go-go-related gene (hERG) (Q12809 whole entry): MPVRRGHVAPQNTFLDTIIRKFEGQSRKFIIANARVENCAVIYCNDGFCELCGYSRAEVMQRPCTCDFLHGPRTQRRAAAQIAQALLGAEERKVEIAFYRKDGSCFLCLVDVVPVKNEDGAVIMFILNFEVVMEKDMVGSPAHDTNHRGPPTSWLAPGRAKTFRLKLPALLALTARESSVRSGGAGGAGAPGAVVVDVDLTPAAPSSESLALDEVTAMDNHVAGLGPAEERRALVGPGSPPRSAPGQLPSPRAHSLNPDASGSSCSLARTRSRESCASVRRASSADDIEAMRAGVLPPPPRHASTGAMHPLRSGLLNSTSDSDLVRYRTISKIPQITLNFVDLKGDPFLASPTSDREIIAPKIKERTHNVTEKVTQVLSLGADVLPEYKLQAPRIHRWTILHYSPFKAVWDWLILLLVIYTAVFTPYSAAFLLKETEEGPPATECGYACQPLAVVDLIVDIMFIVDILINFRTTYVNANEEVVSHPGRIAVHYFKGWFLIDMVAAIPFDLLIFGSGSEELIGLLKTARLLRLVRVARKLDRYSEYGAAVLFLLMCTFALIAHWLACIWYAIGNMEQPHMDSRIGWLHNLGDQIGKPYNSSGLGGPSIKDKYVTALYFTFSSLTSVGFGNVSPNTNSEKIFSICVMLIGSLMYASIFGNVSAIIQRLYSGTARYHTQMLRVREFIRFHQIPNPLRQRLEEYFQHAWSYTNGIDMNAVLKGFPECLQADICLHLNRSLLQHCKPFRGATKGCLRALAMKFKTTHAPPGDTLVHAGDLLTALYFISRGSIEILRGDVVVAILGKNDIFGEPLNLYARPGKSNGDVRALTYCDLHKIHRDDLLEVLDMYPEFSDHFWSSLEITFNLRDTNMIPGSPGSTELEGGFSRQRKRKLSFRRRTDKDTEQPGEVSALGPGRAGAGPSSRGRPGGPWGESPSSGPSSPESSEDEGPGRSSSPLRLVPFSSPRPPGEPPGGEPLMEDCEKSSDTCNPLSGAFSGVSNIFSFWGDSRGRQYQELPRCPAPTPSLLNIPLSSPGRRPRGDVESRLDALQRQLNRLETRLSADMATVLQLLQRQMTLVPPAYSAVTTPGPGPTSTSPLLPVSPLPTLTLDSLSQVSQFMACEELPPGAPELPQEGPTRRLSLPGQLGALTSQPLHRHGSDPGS

[4] = MCLint in vitro intrinsic clearance, mouse (MLM); format: in vitro ADME
[5] = system: human fibroblast; assay: in vitro; conditions: human
[6] = in vitro
[7] = system: S. cerevisiae; assay: in vitro; conditions: Saccharomyces cerevisiae
[8] = system: Cryptosporidium parvum (CP); assay: Cell culture model of Cryptosporidium parvum infection in HCT-8 cells, real-time qRT-PCR; format: cell-based; conditions: Cryptosporidium parvum
Method in brief: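 HCT-8 monolayers were infected with C. parvum Iowa oocysts (1.5×10^4/well) for 3 h, then compounds were added after medium exchange and cells were incubated 41 h more (44 h total, 37 °C). Parasite Cp18S rRNA was measured by one-step SYBR qRT-PCR of lysates, normalized to host Hs18S, and % inhibition at the stated µM was derived from a standard curve.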

SMILES: CNC(=O)C(C)c1ccc(Oc2nc3ccc(Cl)cc3s2)cc1 (centres unmarked) [NZ-369, 2-{4-[(6-chloro-1,3-benzothiazol-2-yl)oxy]phenyl}-N-methylpropanamide]
- lesion scores in the duodenum vs unmedicated broilers and NZ-366 [1]: lower
- reduction of duodenal lesion scores compared with Salinomycin ([1]; Salinomycin in-feed): comparable to broiler chicks administered Salinomycin
- HCLint (mL/min/g liver), HLM [2]: HLM = 0.69 mL/min/g liver
- IC50 [3]: > 30 µM
- MCLint (mL/min/g liver), MLM [4]: MLM = 3.3 mL/min/g liver
- concentrations at which not toxic, human fibroblast cytotoxicity testing [5]: ≥ 100 µM
- IC50 ([6]; Saccharomyces cerevisiae): > 100 µM
- IC50 ([6]; human): > 100 µM
- concentrations at which not toxic, S. cerevisiae cytotoxicity testing [7]: ≥ 100 µM
- MIC50 ([8]; 44 h, CP in HCT-8 cells, 44 h infection, 50% reduction of parasite growth vs control, NA: not active, read-out: MIC50): 50 to 80 nM (≈ 0.0173 to 0.0277 µg/mL)
- MIC50 ([8]; read-out: MIC50 (nM) (CP)): 80 nM (≈ 0.0277 µg/mL)
